“Also recorded” adds a separate entry of the source. Where two headings read alike, the source gives them in different places.
Experiments:
GSK-3β = details: cited from earlier work
AChE [1] = molecular target: T1, AChE (Electrophorus electricus, UniProt O42275); set-up: method as in PMID 34024109; details: value of the design leads (abstract, Figure 2); cited from earlier work
recombinant human GSK-3β = molecular target: T2, recombinant human GSK-3β (Homo sapiens, UniProt P49841); experiment: GSK-3β inhibition (luciferin kinase detection); assay type: biochemical
T2 construct: purchased
Experimental: Add ATP and substrate polypeptide to the reaction template for GSK-3β under the most suitable enzyme reaction system and conditions, let the enzyme react with ATP and substrate polypeptide, and use luciferin kinase detection technology to detect enzyme activity. All the compounds to be tested were prepared by adding DMSO to a solution with a concentration of 10^−2 mol/L and diluted with PBS to the required concentration when used; the purchased GSK-3β was diluted from 1600 ng/μL to 2 ng/μL, ready for use.

AChE [2] = molecular target: T1, AChE; experiment: biochemical; set-up: species or system electric eel
Experimental: The inhibitory activities of the compounds on AChE were determined by an Ellman assay. First, 20 μL of phosphate buffer was added to a 96-well plate. Then, compounds of different concentrations (20 μL), 100μL of 1mM DTNB, and 40 μL of AChE solution (2 U/mL) were added successively. The plate was incubated at 37 °C for 15 min. Briefly, 20 μL of acetylthiocholine iodide (1 mM) was added to the mixed solution. The plate was incubated at 25 °C for 20 min. The reaction was terminated by adding 3% SDS to each well. […] The inhibition of each compound was calculated using the formula (1 − Ai/Ac) × 100, where Ai and Ac represent the absorbance of the reaction mixture in the presence and absence of inhibitors, respectively. The IC50 values of all target compounds were calculated by using Graph Pad Prism 9.5.

HepG2 cells = experiment: Hepatotoxicity on HepG2 cells (MTT assay); assay type: cell-based; details: concentrations of up to 20 μM
Experimental: HepG2 cells were cultured in DMEM supplemented with 10% FBS and 100 U/mL of penicillin-streptomycin (Thermo, Waltham, MA, USA) at 37 °C in a humidified atmosphere containing 5% CO2.
HepG2 cells were seeded in 96-well plates at a density of 2 × 10^4 cells per well. After 24 h, different concentrations of tacrine or compound 18a (1 μM, 5 μM, 10 μM, and 20 μM) and DMSO were added to the wells. MTT assay was performed, and the survival percentage of cells was calculated.

AChE [3] = molecular target: T1, AChE; experiment: Kinetic study of AChE inhibition (Lineweaver–Burk); assay type: biochemical; details: Lineweaver–Burk plots; 0.02, 0.04, 0.08 μM inhibitor
Experimental: In 96-well plates, 20μL of PBS, compound 18a (20 μL) with three final concentrations (0.02 μM, 0.04 μM, and 0.08 μM), 20 μL of acetylthiocholine iodide (50–300 μM), and 40 μL of AChE (2 U/mL) were added successively. After incubation at 37 °C for 15 min, 100 μL of DTNB (1 mM) was added. A microplate reader (Thermo, Waltham, MA, USA) was used to record the absorbance at 405 nm. Lineweaver–Burk reciprocal plots were created by graphing 1/V vs. 1/[S] by using GraphPad Prism 9.5.

[4] = system: SH-SY5Y neuroblastoma cells; experiment: Cytotoxicity on SH-SY5Y cells (MTT assay); assay type: cell-based, human; details: concentrations of up to 25 μM
Experimental: SH-SY5Y cells were cultured in Dulbecco’s modified Eagle medium (DMEM) with F12 (KeyGEN BioTECH, Nanjing, China), supplemented with 10% (v/v) fetal bovine serum (FBS) (Sen Bei Jia) and antibiotics (penicillin streptomycin) (KeyGEN BioTECH, Nanjing, China). Cells were kept at 37 °C and 5% CO2 in a humidified atmosphere in a cell culture incubator and passaged twice a week.
The cytotoxicity assay on SH-SY5Y cells was the same as in our previous studies. Cells were seeded in a 96-well plate, and the medium was removed after 24 h. Compound 18a (3.125 μM, 6.25 μM, 12.5 μM, and 25 μM) was added to each well. After treatment for 24 h, 10 μL of 3-(4,5-dimethyl-2-thiazolyl)-2,5-diphenyl-2-H-tetrazolium bromide was added to each well. After incubation at 37 °C for 4 h, 100 μL of DMSO was added, and the absorbance of the mixture was determined at 590 nm using a microplate reader (FC/K3, Thermo, Waltham, MA, USA). We used the formula Ae/Ab 100% to calculate the survival rate, where Ae and Ab represent the absorbance in the presence and absence of the tested drugs. Each experiment was carried out three times in total.

[5] = recombinant human GSK-3β, mean of three independent determinations, read-out: IC50 (μM) ± SEM GSK-3β
[6] = AChE from electric eel, mean of three independent determinations, read-out: IC50 (μM) ± SEM AChE

T1 sequence (O42275 24-633): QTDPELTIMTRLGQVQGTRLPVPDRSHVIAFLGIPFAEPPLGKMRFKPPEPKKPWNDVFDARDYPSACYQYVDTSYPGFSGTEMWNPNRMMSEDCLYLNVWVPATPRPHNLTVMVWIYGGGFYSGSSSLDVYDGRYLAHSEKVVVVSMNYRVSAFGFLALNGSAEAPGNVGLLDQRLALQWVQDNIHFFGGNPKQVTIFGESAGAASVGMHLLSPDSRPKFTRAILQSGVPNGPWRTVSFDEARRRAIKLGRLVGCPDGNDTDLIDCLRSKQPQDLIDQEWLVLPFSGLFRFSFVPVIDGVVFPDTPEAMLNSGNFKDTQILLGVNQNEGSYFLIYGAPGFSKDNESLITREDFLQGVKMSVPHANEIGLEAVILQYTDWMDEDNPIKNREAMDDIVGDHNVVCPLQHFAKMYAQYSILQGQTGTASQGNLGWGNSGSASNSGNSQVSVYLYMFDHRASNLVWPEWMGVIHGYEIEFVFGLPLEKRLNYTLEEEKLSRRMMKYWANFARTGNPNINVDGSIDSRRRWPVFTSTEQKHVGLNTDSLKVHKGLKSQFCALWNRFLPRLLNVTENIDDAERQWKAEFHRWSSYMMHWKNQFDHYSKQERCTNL
T2 sequence (P49841 whole entry): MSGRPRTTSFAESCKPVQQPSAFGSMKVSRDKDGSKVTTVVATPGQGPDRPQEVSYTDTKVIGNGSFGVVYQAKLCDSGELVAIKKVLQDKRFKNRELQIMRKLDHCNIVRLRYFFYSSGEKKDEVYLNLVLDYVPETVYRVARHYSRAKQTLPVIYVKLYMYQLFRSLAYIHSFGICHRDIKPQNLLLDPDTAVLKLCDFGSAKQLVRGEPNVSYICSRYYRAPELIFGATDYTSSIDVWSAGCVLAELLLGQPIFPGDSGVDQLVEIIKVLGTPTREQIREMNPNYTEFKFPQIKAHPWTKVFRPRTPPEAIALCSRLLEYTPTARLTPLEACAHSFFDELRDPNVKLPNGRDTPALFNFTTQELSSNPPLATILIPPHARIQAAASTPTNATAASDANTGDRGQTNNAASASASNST

Row | SMILES | IC50 (recombinant human GSK-3β; [5]) [µM] | IC50 (AChE [2]; [6]) [µM] | further results
1 | Cc1nc(-c2ccncc2)cc(=O)[nH]1 [Compound 5] | – | – | IC50 (GSK-3β; pyrimidone lead compound 5): 3000 nM
2 | Cn1c(NCCCCCCCNc2c3c(nc4cc(Cl)ccc24)CCCC3)nc(-c2ccncc2F)cc1=O [Compound 7] | – | – | IC50 (AChE [1]): 51 nM; IC50 (GSK-3β; previous hybrid compound 7): 89 nM
3 | Cn1c(SCCNc2c3c(nc4cc(Cl)ccc24)CCCC3)nc(-c2ccncc2)cc1=O [Compound 16a, 2-((2-((6-Chloro-1,2,3,4-tetrahydroacridin-9-yl)amino)ethyl)thio)-3-methyl-6-(pyridin-4-yl)pyrimidin-4(3H)-one] | 15.1 ± 0.9 | 2.3 ± 0.14 | –
4 | Cn1c(SCCNc2c3c(nc4ccc(Br)cc24)CCCC3)nc(-c2ccncc2)cc1=O [Compound 16b, 2-((2-((7-Bromo-1,2,3,4-tetrahydroacridin-9-yl)amino)ethyl)thio)-3-methyl-6-(pyridin-4-yl)pyrimidin-4(3H)-one] | 38.5 ± 0.7 | 20 ± 1.5 | –
5 | Cn1c(SCCNc2c3c(nc4ccc(Cl)cc24)CCCC3)nc(-c2ccncc2)cc1=O [Compound 16c, 2-((2-((7-Chloro-1,2,3,4-tetrahydroacridin-9-yl)amino)ethyl)thio)-3-methyl-6-(pyridin-4-yl)pyrimidin-4(3H)-one] | 2.28 ± 0.07 | 10.3 ± 0.7 | –
6 | Cn1c(SCCNc2c3c(nc4cc(Cl)ccc24)CCCC3)nc(-c2ccncc2F)cc1=O [Compound 16d, 2-((2-((6-Chloro-1,2,3,4-tetrahydroacridin-9-yl)amino)ethyl)thio)-6-(3-fluoropyridin-4-yl)-3-methylpyrimidin-4(3H)-one] | 1.69 ± 0.09 | 1.89 ± 0.21 | –
7 | Cn1c(SCCNc2c3c(nc4ccc(Br)cc24)CCCC3)nc(-c2ccncc2F)cc1=O [Compound 16e, 2-((2-((7-Bromo-1,2,3,4-tetrahydroacridin-9-yl)amino)ethyl)thio)-6-(3-fluoropyridin-4-yl)-3-methylpyrimidin-4(3H)-one] | 0.94 ± 0.02 | 15.3 ± 0.9 | –
8 | Cn1c(SCCNc2c3c(nc4ccc(Cl)cc24)CCCC3)nc(-c2ccncc2F)cc1=O [Compound 16f, 2-((2-((7-Chloro-1,2,3,4-tetrahydroacridin-9-yl)amino)ethyl)thio)-6-(3-fluoropyridin-4-yl)-3-methylpyrimidin-4(3H)-one] | – | – | IC50 (recombinant human GSK-3β): 2.44 ± 0.06 µM; IC50 (AChE [2]): 16.5 ± 0.8 µM
9 | Cn1c(NCCSSCCNc2c3c(nc4cc(Cl)ccc24)CCCC3)nc(-c2ccncc2)cc1=O [Compound 18a, 2-((2-((2-((6-Chloro-1,2,3,4-tetrahydroacridin-9-yl)amino)ethyl)disulfanyl)ethyl)amino)-3-methyl-6-(pyridin-4-yl)pyrimidin-4(3H)-one] | 0.93 ± 0.08 | 0.047 ± 0.002 | hepatotoxicity on HepG2 cells (HepG2 cells): no significant hepatotoxicity; inhibition mode against AChE (AChE [3]): mixed type; toxicity to SH-SY5Y neuroblastoma cells [4]: lack of toxicity; also recorded: no toxicity
10 | Cn1c(NCCSSCCNc2c3c(nc4ccc(Br)cc24)CCCC3)nc(-c2ccncc2)cc1=O [Compound 18b, 2-((2-((2-((7-Bromo-1,2,3,4-tetrahydroacridin-9-yl)amino)ethyl)disulfanyl)ethyl)amino)-3-methyl-6-(pyridin-4-yl)pyrimidin-4(3H)-one] | 0.37 ± 0.02 | 2.13 ± 0.11 | –
11 | Cn1c(NCCSSCCNc2c3c(nc4ccc(Cl)cc24)CCCC3)nc(-c2ccncc2)cc1=O [Compound 18c, 2-((2-((2-((7-Chloro-1,2,3,4-tetrahydroacridin-9-yl)amino)ethyl)disulfanyl)ethyl)amino)-3-methyl-6-(pyridin-4-yl)pyrimidin-4(3H)-one] | 0.42 ± 0.03 | 2.24 ± 0.13 | –
